Laboratory results as given in patent publication US8134015B2, “Compound inhibiting in vivo phosphorous transport and medicine containing the same” (Kyowa Hakko Kirin Co., Ltd., priority 2003, dated 2012).

What follows are molecules tested against T1, rat NaPi-2b (Rattus norvegicus, UniProt Q9JJ09) (assay: Sodium-dependent phosphate uptake of Xenopus oocytes which expressed NaPi-2b (32P)). Conditions: Xenopus oocytes expressing rat NaPi-2b, 32P radioactive phosphorus; read-out: IC50 (phosphate uptake inhibitory activity).
T1 construct: expressed in transfected cells; host or cells: Xenopus oocytes injected with cRNA
T1 sequence (Q9JJ09 1-695): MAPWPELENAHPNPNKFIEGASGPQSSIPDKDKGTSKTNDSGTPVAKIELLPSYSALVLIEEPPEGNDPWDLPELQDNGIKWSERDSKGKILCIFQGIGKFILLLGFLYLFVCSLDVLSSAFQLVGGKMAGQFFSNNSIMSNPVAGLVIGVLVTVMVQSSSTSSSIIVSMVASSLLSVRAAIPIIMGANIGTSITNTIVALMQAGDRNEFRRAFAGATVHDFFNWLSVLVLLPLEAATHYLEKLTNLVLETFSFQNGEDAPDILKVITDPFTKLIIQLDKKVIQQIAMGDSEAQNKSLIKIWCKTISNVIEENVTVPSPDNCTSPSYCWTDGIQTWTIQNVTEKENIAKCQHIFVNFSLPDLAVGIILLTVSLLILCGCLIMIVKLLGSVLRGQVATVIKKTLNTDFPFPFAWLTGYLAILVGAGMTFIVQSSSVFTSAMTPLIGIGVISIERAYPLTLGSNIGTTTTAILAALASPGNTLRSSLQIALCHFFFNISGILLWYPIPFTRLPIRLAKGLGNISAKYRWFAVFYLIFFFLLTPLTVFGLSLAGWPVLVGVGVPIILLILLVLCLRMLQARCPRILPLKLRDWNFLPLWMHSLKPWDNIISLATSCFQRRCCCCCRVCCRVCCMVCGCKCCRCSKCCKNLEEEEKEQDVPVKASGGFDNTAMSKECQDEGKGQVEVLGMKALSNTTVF
Assay type: cell-based
Outline: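 Steps: rat NaPi-2b cDNA cloned from small intestine; cRNA made and injected into oocytes; 2-day expression; 32P phosphate uptake with compound; % inhibition at 300/100 μM taken from one curve.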

**Q.** With `O=C(Nc1ccc(Br)cc1C(=O)N/N=C/c1ccc(F)cc1)c1ccc(CNCCN2CCOCC2)cc1` [Compound 284, N-[4-Bromo-2-(4-fluoro-benzylidene-hydrazinocarbonyl)-phenyl]-4-[(2-morpholin-4-yl-ethylamino)-methyl]-benzamide] as the molecule, how does the IC50 read?
**A.** Its IC50 is 26.9 µM.

**Q.** `Cc1cccc(/C=N/NC(=O)c2ccccc2NC(=O)c2ccncc2)c1` [Compound 136, N-[2-(3-Methyl-benzylidene-hydrazinocarbonyl)-phenyl]-isonicotinamide] was tested. Which IC50 did it give?
**A.** Its IC50 is 4.52 µM.

**Q.** Which IC50 does the source give for `COc1ccc(C(=O)Nc2ccc(Cl)cc2C(=O)N/N=C/c2ccc(F)cc2)cc1OC` [Compound 66, N-[4-Chloro-2-(4-fluoro-benzylidene-hydrazinocarbonyl)-phenyl]-3,4-dimethoxy-benzamide] here?
**A.** The IC50 was 0.89 µM.

**Q.** How did the IC50 turn out when `Cc1ccc(/C=N/NC(=O)c2c(NC(=O)c3cccc(CN4CCC(N5CCCCC5)CC4)c3)sc3c2CCCC3)cc1C` [Compound 615, 3-[1,4′]Bipiperidinyl-1′-ylmethyl-N-[3-(3,4-dimethyl-benzylidene-hydrazinocarbonyl)-4,5,6,7-tetrahydro-benzo[b]thiophen-2-yl]-benzamide] was run?
**A.** Its IC50 is 2.08 µM.

**Q.** Which IC50 does the source give for `O=C(Nc1ccc(Br)cc1C(=O)N/N=C/c1ccc(Cl)c(C(F)(F)F)c1)c1cccc(CS(=O)(=O)CCO)c1` [Compound 678, N-[4-Bromo-2-(4-chloro-3-trifluoromethyl-benzylidene-hydrazinocarbonyl)-phenyl]-3-(2-hydroxy-ethanesulfonylmethyl)-benzamide] here?
**A.** Its IC50 is < 3 µM.

**Q.** How did the IC50 turn out when `COc1ccc(/C=N/NC(=O)c2cc(N3CCCCC3)ccc2NC(=O)c2cccc(CN(CC(C)O)CC(C)O)c2)cc1` (stereo not shown) [Compound 958, 3-{[Bis-(2-hydroxy-propyl)-amino]-methyl}-N-[2-(4-methoxy-benzylidene-hydrazinocarbonyl)-4-piperidin-1-yl-phenyl]-benzamide] was run?
**A.** Its IC50 is < 1 µM.

**Q.** For `CCN(CC)CCN(CCN(CC)CC)Cc1cccc(C(=O)Nc2sc3c(c2C(=O)N/N=C/c2ccc(Cl)c(C(F)(F)F)c2)CCCC3)c1` [Compound 849, 3-{[Bis-(2-diethylamino-ethyl)-amino]-methyl}-N-[3-(4-chloro-3-trifluoromethyl-benzylidene-hydrazinocarbonyl)-4,5,6,7-tetrahydro-benzo[b]thiophen-2-yl]-benzamide], which IC50 is on record?
**A.** Its IC50 is < 3 µM.

**Q.** With `COc1cc(OC)cc(C(=O)Nc2ccc(Br)cc2C(=O)N/N=C/c2cccc(F)c2)c1` [Compound 114, N-[4-Bromo-2-(3-fluoro-benzylidene-hydrazinocarbonyl)-phenyl]-3,5-dimethoxy-benzamide] as the molecule, how does the IC50 read?
**A.** The IC50 was 2.55 µM.

**Q.** `COc1ccc(C(=O)Nc2ccc(Br)cc2C(=O)N/N=C/c2cccc(O)c2)cc1OC` [Compound 63, N-[4-Bromo-2-(3-hydroxy-benzylidene-hydrazinocarbonyl)-phenyl]-3,4-dimethoxy-benzamide] was tested. Which IC50 did it give?
**A.** Its IC50 is 5.97 µM.

**Q.** `CCN(CC)CCNCc1ccc(C(=O)Nc2ccc(Br)cc2C(=O)N/N=C/c2ccc(C)c(C)c2)cc1` [Compound 292, N-[4-Bromo-2-(3,4-dimethyl-benzylidene-hydrazinocarbonyl)-phenyl]-4-[(2-diethylamino-ethylamino)-methyl]-benzamide] was tested. Which IC50 did it give?
**A.** The IC50 was 3.5 µM.

**Q.** `Cc1cccc(/C=N/NC(=O)c2ccccc2NC(=O)c2cccc(F)c2)c1` [Compound 83, 3-Fluoro-N-[2-(3-methyl-benzylidene-hydrazinocarbonyl)-phenyl]-benzamide] was tested. Which IC50 did it give?
**A.** The IC50 was 2.98 µM.

**Q.** Which IC50 does the source give for `Cc1cccc(/C=N/NC(=O)c2cc(Br)ccc2NC(=O)c2ccncc2)c1` [Compound 168, N-[4-Bromo-2-(3-methyl-benzylidene-hydrazinocarbonyl)-phenyl]-isonicotinamide] here?
**A.** The IC50 was 4.84 µM.

Same assay, conditions: phosphate uptake, oocytes expressing rat NaPi-2b; 300 μM, determined from inhibition curve

**Q.** With `CCN(CC)CCN(C)Cc1cccc(C(=O)Nc2c(C)csc2C(=O)N/N=C/c2ccc(OC)cc2)c1` [Compound 712, 3-{[(2-Diethylamino-ethyl)-methyl-amino]-methyl}-N-[2-(4-methoxy-benzylidene-hydrazinocarbonyl)-4-methyl-thiophen-3-yl]-benzamide] as the molecule, how does the “Inhibition (%) (300 μM)” value read?
**A.** Its value is 48.73%.
